Assays:
MOLM-16 = MOLM-16 EC50 assay; assay type: cell-based; conditions: MOLM16
PIP4K2 B = biological target: T1, PIP4K2 B (Homo sapiens, UniProt P78356); experiment: Kinase Assay-PIP4K2 B (Transcreener FI); assay type: biochemical
T1 construct: made in house; host or cells: E. coli
T1 sequence (P78356 1-416): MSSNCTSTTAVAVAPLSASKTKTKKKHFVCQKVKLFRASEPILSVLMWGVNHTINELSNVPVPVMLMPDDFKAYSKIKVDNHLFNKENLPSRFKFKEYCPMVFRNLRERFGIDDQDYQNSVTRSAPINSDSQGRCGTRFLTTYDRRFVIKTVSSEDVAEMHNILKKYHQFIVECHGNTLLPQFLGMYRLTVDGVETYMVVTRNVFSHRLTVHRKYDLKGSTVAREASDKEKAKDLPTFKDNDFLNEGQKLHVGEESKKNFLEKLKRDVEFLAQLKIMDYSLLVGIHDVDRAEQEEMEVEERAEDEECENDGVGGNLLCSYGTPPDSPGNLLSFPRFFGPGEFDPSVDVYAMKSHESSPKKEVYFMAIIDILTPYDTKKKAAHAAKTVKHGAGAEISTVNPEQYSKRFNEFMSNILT
Text: GST tagged PIP4KtypeIIA and B enzymes were overexpressed in E. Coli and purified to >80% homogeneity. Phosphatidyl inositol-5-phosphate (PI5P, Cat. #850152, Avanti Polar Lipids Inc.) was used as the lipid substrate and phosphatidyl ethanolamine (DOPE 18:1, Cat. #850725, Avanti Polar Lipids Inc.) was used as the carrier lipid for assays. Ultrapure ATP and GTP was purchased from Bellbrooke Labs. ADP Glo reagents were obtained from Promega. Transcreener FI reagent was obtained from Bellbrooke labs.
• 1. HEPES buffer mix: 200 mM HEPES pH 7.4, 50 mM MgCl2, 0.05% v/v triton X 100 • 2. HNE buffer: 20 mM HEPES, pH 7.4, 100 mM NaCl, 0.5 mM EGTA • 3. H:E buffer: 30 mM HEPES, pH 7.4, 1 mM EGTA
GST-tagged PIP4KtypeIIB (3.4 μl, 2.77 mg/mL) was diluted to 5 mL using HNE buffer to yield 5× enzyme stock (25 nM)
Lipid Preparation: In a 10 mL pyrex glass vial, […] were suspended in 2.5 mL of HEPES buffer mix and 2.5 mL of H:E buffer. The contents were mixed and sonicated for 3 min to yield a translucent lipid stock.
Compound Preparation: Compounds were stored as 5 mM stocks in neat DMSO as room temperature in glass vials. 5 mM stocks were diluted to 2 mM and then serially diluted (3×) in neat DMSO in 96 well polypropylene plates. From the serially diluted stocks, 3 μL was delivered into 250 μL of 25% DMSO (in water) to generate 5× compound stocks. Typically, the highest compound conc. was 24 μM.
The assay volume was kept at 25 μL. To each well of the reaction plate, 10 μL of lipid stock (1:1 ratio PI5P:DOPE) was delivered. This was followed by the addition of 5 μL of compound in 25% DMSO. Then, to each well, 5 μL of 25 nM (5×) typeIIB enzyme was delivered. The contents were mixed well and incubated for 1 h at 27° C. After 1 h, reaction was initiated by adding 5 μL of 500 μM GTP and the contents were mixed well with a multi-channel pipetteman. The final concentration of the reagents are as follows: 50 mM HEPES, pH 7.3, 10 mM MgCl2, 20 mM NaCl, 0.01% v/v triton-X100, 5% DMSO, 100 μM GTP, 80 μM (2 μg) PI5P, 2 μg DOPE, and 5 nM PIP4KIIB Typically, the highest conc. of compounds was 4.8 μM and the lowest conc. was 0.
After 2 h, the reaction was quenched by adding 25 μL of transcreener FI reagent. The contents were incubated at rt for 1 h and the Fluorescence (Ex: 584 Em: 623) was read using Molecular Devices Paradigm plate reader. […] The blanks were averaged and subtracted from all other wells. Using a calibration curve, RFU was converted to μM GDP (product). IC50 was calculated by plotting the residual activity (expressed as % No inhibitor control) vs. log [Inh. conc.].

PIP4K2A = biological target: T2, PIP4K2A (Homo sapiens, UniProt P48426); experiment: Kinase Assay-PIP4K2 A (ADP-Glo); assay type: biochemical
T2 construct: made in house; host or cells: E. coli
T2 sequence (P48426 1-406): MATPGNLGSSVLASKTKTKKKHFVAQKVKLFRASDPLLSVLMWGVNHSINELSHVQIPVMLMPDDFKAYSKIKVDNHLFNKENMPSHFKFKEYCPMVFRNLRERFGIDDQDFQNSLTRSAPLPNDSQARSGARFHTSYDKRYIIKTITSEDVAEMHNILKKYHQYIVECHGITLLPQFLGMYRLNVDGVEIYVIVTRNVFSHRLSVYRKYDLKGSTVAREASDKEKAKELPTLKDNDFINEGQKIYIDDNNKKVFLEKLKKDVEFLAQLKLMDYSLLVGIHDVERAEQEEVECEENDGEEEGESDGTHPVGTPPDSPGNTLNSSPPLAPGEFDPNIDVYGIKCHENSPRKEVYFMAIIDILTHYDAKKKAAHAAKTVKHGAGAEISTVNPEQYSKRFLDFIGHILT
Protocol: Dilution series of the compounds were prepared in DMSO at 100 times the final assay concentration (n1=n0/3 in 10 points). The compounds were further diluted to three times the assay concentration in assay buffer (20 mM MOPS pH 7.2, 25 mM magnesium chloride, 0.005% Tween 20). 6 μL of the diluted compounds were added to a 384 well assay plate followed by 9 μL of a mix consisting of 4 nM PIP4K2A (full length protein, SignalChem) and 100 μM PI(5)P diC8 (Tebu-Bio). Enzyme and compounds were pre-incubated at room temperature for 15 minutes.
Then 3 μL of a solution containing 60 μM ATP (Promega) in assay buffer was added to the wells containing compound and enzyme and mixing was performed by pipetting several times. The reaction was incubated at room temperature for 1 h. Then 18 μL of ADP-Glo™ Reagent (Promega) was added to stop the kinase reaction and deplete the unconsumed ATP, mixing was performed by pipetting several times. The plate was incubated at room temperature for 40 minutes before addition of 36 μL of Kinase Detection Reagent (Promega) to convert ADP to ATP and introduce luciferase and luciferin to detect ATP. The reaction was incubated at room temperature for 40 minutes before the luminescence was measured in a in a Victor 3V 1420 multilabel counter (Perkin Elmer).
Percent inhibition of the compounds as compared to dimethyl sulfoxide treated control samples was calculated. Compound concentration versus percent inhibition were fitted to generate IC50 values. […]

EC50 (MOLM-16) [nM]	IC50 (PIP4K2 B) [nM]	IC50 (PIP4K2A) [nM]	SMILES
> 1000	100 to 1000	10 to 100	CN(C)C(=O)c1ccc(-c2cnc(Nc3cnc4c(c3)OCCO4)nc2N(C)[C@H]2C[C@@H](O)C2)cc1 [Compound 18, 4-[2-({2H,3H-[1,4]dioxino[2,3-b]pyridin-7-yl}amino)-4-{methyl[(1s,3s)-3-hydroxycyclobutyl]amino}pyrimidin-5-yl]-N,N-dimethylbenzamide]
10 to 100	10 to 100	10 to 100	COc1nc(Nc2cnc3c(c2)N(C(=O)CN(C)C)CCO3)ncc1-c1ccc(N2CCCC2=O)cc1 [Compound 19, 1-{4-[2-({1-[2-(dimethylamino)acetyl]-1H,2H,3H-pyrido[2,3-b][1,4]oxazin-7-yl}amino)-4-methoxypyrimidin-5-yl]phenyl}pyrrolidin-2-one]
100 to 1000	10 to 100	10 to 100	Cc1cnnn1-c1ccc(-c2cnc(Nc3cnc4c(c3)N(C(=O)CN(C)C)CCO4)nc2)cc1 [Compound 20, 2-(dimethylamino)-1-[7-({5-[4-(5-methyl-1H-1,2,3-triazol-1-yl)phenyl]pyrimidin-2-yl}amino)-1H,2H,3H-pyrido[2,3-b][1,4]oxazin-1-yl]ethan-1-one]
–	10 to 100	10 to 100	CCN(CC)CCOC(=O)N1CCOc2ncc(Nc3ncc(-c4ccc(N5CCCC5=O)cc4)cn3)cc21 [Compound 23, 2-(diethylamino)ethyl 7-({5-[4-(2-oxopyrrolidin-1-yl)phenyl]pyrimidin-2-yl}amino)-1H,2H,3H-pyrido[2,3-b][1,4]oxazine-1-carboxylate]
–	> 1000	> 1000	CP(C)(=O)c1ccc(-c2ccc(Nc3cnc4c(c3)N3C(=O)CC[C@H]3CO4)nc2)cc1 [Compound 27, (6S)-12-({5-[4-(dimethylphosphoryl)phenyl]pyridin-2-yl}amino)-8-oxa-2,10-diazatricyclo[7.4.0.0^2,6]trideca-1(9),10,12-trien-3-one]
> 1000	1 to 10	1 to 10	C=C(C)c1cc(Nc2cnc3c(c2)N2C(=O)CC[C@H]2CO3)ncc1-c1ccc(-c2nncn2C)cc1 [Compound 8, (6S)-12-({5-[4-(4-methyl-4H-1,2,4-triazol-3-yl)phenyl]-4-(prop-1-en-2-yl)pyridin-2-yl}amino)-8-oxa-2,10-diazatricyclo[7.4.0.0^2,6]trideca-1(13),9,11-trien-3-one]
–	10 to 100	100 to 1000	CCN(CC)CCN(C)C(=O)N1CCOc2ncc(Nc3ncc(-c4ccc(N5C(=O)CC[C@H]5C)cc4)c(OC)n3)cc21 [Compound 24, N-[2-(diethylamino)ethyl]-7-[(4-methoxy-5-{4-[(2R)-2-methyl-5-oxopyrrolidin-1-yl]phenyl}pyrimidin-2-yl)amino]-N-methyl-1H,2H,3H-pyrido[2,3-b][1,4]oxazine-1-carboxamide]
–	10 to 100	10 to 100	CCN(CC)CCOC(=O)N1CCOc2ncc(Nc3ncc(-c4ccc(N5C(=O)CC[C@H]5C)cc4)cn3)cc21 [Compound 22, 2-(diethylamino)ethyl 7-[(5-{4-[(2R)-2-methyl-5-oxopyrrolidin-1-yl]phenyl}pyrimidin-2-yl)amino]-1H,2H,3H-pyrido[2,3-b][1,4]oxazine-1-carboxylate]
–	10 to 100	10 to 100	COc1nc(Nc2cncc(N3CCC(N(C)C)CC3)c2)ncc1-c1ccc(-c2nnccc2C)cc1 [Compound 17, N-{5-[4-(dimethylamino)piperidin-1-yl]pyridin-3-yl}-4-methoxy-5-[4-(4-methylpyridazin-3-yl)phenyl]pyrimidin-2-amine]
10 to 100	1 to 10	1 to 10	O=C1CCCN1c1ccc(-c2cnc(Nc3cnc4c(c3)N3C(=O)CC[C@H]3CO4)nc2OCCN2CCOCC2)cc1 [Compound 6, (6S)-12-({4-[2-(morpholin-4-yl)ethoxy]-5-[4-(2-oxopyrrolidin-1-yl)phenyl]pyrimidin-2-yl}amino)-8-oxa-2,10-diazatricyclo[7.4.0.0^2,6]trideca-1(9),10,12-trien-3-one]
10 to 100	10 to 100	10 to 100	COc1nc(Nc2cncc(N3CCC(N(C)C)CC3)c2)ncc1-c1ccc(N2CCCC2=O)cc1 [Compound 16, 1-{4-[2-({5-[4-(dimethylamino)piperidin-1-yl]pyridin-3-yl}amino)-4-methoxypyrimidin-5-yl]phenyl}pyrrolidin-2-one]
100 to 1000	1 to 10	1 to 10	CN(c1nc(Nc2cnc3c(c2)OCCO3)ncc1-c1ccc(N2CCCC2=O)cc1)[C@H]1C[C@H](O)C1 [Compound 12, 1-{4-[2-({2H,3H-[1,4]dioxino[2,3-b]pyridin-7-yl}amino)-4-{methyl[(1r,3r)-3-hydroxycyclobutyl]amino}pyrimidin-5-yl]phenyl}pyrrolidin-2-one]
100 to 1000	1 to 10	1 to 10	Cc1cnnn1-c1ccc(-c2cnc(Nc3cnc4c(c3)N(C(=O)OCCN(C)C)CCO4)nc2)cc1 [Compound 13, 2-(dimethylamino)ethyl 7-({5-[4-(5-methyl-1H-1,2,3-triazol-1-yl)phenyl]pyrimidin-2-yl}amino)-1H,2H,3H-pyrido[2,3-b][1,4]oxazine-1-carboxylate]
–	100 to 1000	100 to 1000	CCN(CC)CCN(C)C(=O)N1CCOc2ncc(Nc3ncc(-c4ccc(N5C(=O)CC[C@H]5C)cc4)cn3)cc21 [Compound 25, N-[2-(diethylamino)ethyl]-N-methyl-7-[(5-{4-[(2R)-2-methyl-5-oxopyrrolidin-1-yl]phenyl}pyrimidin-2-yl)amino]-1H,2H,3H-pyrido[2,3-b][1,4]oxazine-1-carboxamide]
